Experimental data as given in patent US6642398B2, “Mono-and disubstituted 3-propyl gamma-aminobutyric acids” (Warner-Lambert Company, priority 1999, dated 2003).
Counter-ions that a name gives are not always drawn. Like-named read-outs stand apart in the source and are kept apart here.

How the values were obtained:
[1] = test system: DBA/2 mice; assay: Anticonvulsant % Protect (DBA2 mouse model of anticonvulsant efficacy); format: in vivo; conditions: for responders at 30 mg/kg: Mus musculus
Procedure: All procedures were carried out in compliance with the NIH Guide for the Care and Use of Laboratory Animals under a protocol approved by the Parke-Davis Animal Use Committee. Male DBA/2 mice, 3 to 4 weeks old were obtained from Jackson Laboratories, Bar Harbour, Me. Immediately before anticonvulsant testing, mice were placed upon a wire mesh, 4 inches square, suspended from a steel rod. The square was slowly inverted through 180° and mice observed for 30 seconds. Any mouse falling from the wire mesh was scored as ataxic (Coughenour L. L., McLean J. R., Parker R. B., “A new device for the rapid measurement of impaired motor function in mice,” Pharm. Biochem. Behav., 1977;6(3):351-3). Mice were placed into an enclosed acrylic plastic chamber (21 cm height, approximately 30 cm diameter) with a high-frequency speaker (4 cm diameter) in the center of the top lid. An audio signal generator (Protek model B-810) was used to produce a continuous sinusoidal tone that was swept linearly in frequency between 8 kHz and 16 kHz once each 10 msec. The average sound pressure level (SPL) during stimulation was approximately 100 dB at the floor of the chamber. Mice were placed within the chamber and allowed to acclimatize for one minute. DBA/2 mice in the vehicle-treated group responded to the sound stimulus (applied until tonic extension occurred, or for a maximum of 60 sec) with a characteristic seizure sequence consisting of wild running followed by clonic seizures, and later by tonic extension, and finally by respiratory arrest and death in 80% or more of the mice. In vehicle-treated mice, the entire sequence of seizures to respiratory arrest lasts approximately 15 to 20 seconds. The incidence of all the seizure phases in the drug-treated and vehicle-treated mice was recorded, and the occurrence of tonic seizures were used for calculating anticonvulsant ED50 values by probit analysis (Litchfield J. T., Wilcoxon F. “A simplified method for evaluating dose-effect experiments,” J. Pharmacol., 1949;96:99-113). Mice were used only once for testing at each dose point. Groups of DBA/2 mice (n=5-10 per dose) were tested for sound-induced seizure responses 2 hours (previously determined time of peak effect) after given drug orally. All drugs in the present study were dissolved in distilled water and given by oral gavage in a volume of 10 mL/kg of body weight. Compounds that are insoluble will be suspended in 1% carboxymethocellulose. Doses are expressed as weight of the active drug moiety.

[2] = 30 mg/kg PO, 1 h, read-out: Anticonvulsant % Protect 1 h
[3] = 30 mg/kg PO, 2 h, read-out: Anticonvulsant % Protect 2 h

## CC(C)C[C@H](CN)CC(=O)O [Pregabalin, (S)-3-(Aminomethyl)-5-methylhexanoic acid, reference compound]
[1]; 30 mg/kg PO, 2 h
  Anticonvulsant % Protect 2 h: 100%

## CC(C)[C@@H](C)[C@@H](CN)CC(=O)O [(3S,4R)3-Aminomethyl 4,5-dimethyl-hexanoic acid]
[1]; [2]
  responders at 30 mg/kg: 20%
[1]; [3]
  responders at 30 mg/kg: 20%

## CCCC(C(C)C)C(CN)CC(=O)O (stereo not drawn) (as salt: HCl) [3-aminomethyl-4-isopropyl-heptanoic acid, 3-Aminomethyl-4-isopropyl-heptanoic acid]
other
  melting point: 160 to 170 °C

## CCC(CC)CC(CN)CC(=O)O (stereo not drawn)
[1]; Table 1, 2 hr
  Anticonvulsant % Protect 2 hr: 20%

## CC(C)[C@H](C)[C@H](CN)CC(=O)O [(3R,4S)-3-Aminomethyl-4,5-dimethyl-hexanoic acid]
[1]; [2]
  responders at 30 mg/kg: 20%
[1]; [3]
  responders at 30 mg/kg: 0%

## CC[C@@H](C)C[C@H](CN)CC(=O)O [(3S,5R)-3-Aminomethyl-5-methyl-heptanoic acid]
[1]; [2]
  responders at 30 mg/kg: 80%

## CC(C)[C@@H](C)[C@H](CN)CC(=O)O [(3R,4R)-3-Aminomethyl-4,5-dimethyl-hexanoic acid]
[1]; [2]
  responders at 30 mg/kg: 100%
[1]; [3]
  responders at 30 mg/kg: 100%

## CC[C@H](C)C[C@H](CN)CC(=O)O [(3S,5S)-3-Aminomethyl-5-methyl-heptanoic acid]
[1]; [2]
  responders at 30 mg/kg: 0%
[1]; [3]
  responders at 30 mg/kg: 0%
